Measured values from patent US9314031B2, “Plant growth regulation” (SYNGENTA PARTICIPATIONS AG, priority 2012, dated 2016).

Tests used:
[1] = tested on: soybeans (Toliman, S40-F8); experiment: Glasshouse trial, Nitrogen Balance Index (Dualex) of soybeans after leaf spray; format: in vivo, soybean; conditions: for Nitrogen Balance Index 8 days after spray application: spray at growth stage 12
From the text: A glasshouse trial was setup to compare crop enhancement effects of trinexapac-ethyl, seaweed extract, and mixtures of trinexapac-ethyl and seaweed extract at various rates, on two varieties of soybeans (Toliman, S40-F8)
Each treatment was applied as a spray to the leaves of the plant at plant growth stage 12 (trifoliolate leaf on the 2nd node unfolded). Assessments of the Nitrogen Balance Index (NBI) were made 8 days after spray application using a Dualex (Force-A, Orsay Cedex) device; NBI is a measure used to estimate the nitrogen and protein status of a plant.

[2] = tested on: soybeans (Toliman, S40-F8); experiment: Glasshouse trial, shoot length of soybeans after leaf spray; format: in vivo, soybean; conditions: for Shoot length 11 days after spray application: spray at growth stage 12
From the text: A glasshouse trial was setup to compare growth regulation effects of trinexapac-ethyl, seaweed extract, and mixtures of trinexapac-ethyl and seaweed extract at various rates, on two varieties of soybeans (Toliman, S40-F8).
Each treatment was applied as a spray to the leaves of the plant at plant growth stage 12 (trifoliolate leaf on the 2nd node unfolded).

[3] = tested on: Winter-rye Rekrut; experiment: Glasshouse trial, lodging of winter rye after leaf spray; format: in vivo; conditions: for % lodging 30 days after spray application: Winter-rye Rekrut, spray at growth stage 30
From the text: (§1) A glasshouse trial was setup to compare growth regulation effects of trinexapac-ethyl, seaweed extract, and mixtures of trinexapac-ethyl and seaweed extract at various rates, on both summer barley (Pasadena) and winter rye (Reknit).
(§2) Each treatment was applied as a spray to the leaves of the plant at plant growth stage 30 (start of stem elongation).

[4] = tested on: summer barley (Pasadena); experiment: Glasshouse trial, lodging of summer barley after leaf spray; format: in vivo; conditions: for % lodging 30 days after spray application: Summer-barley Pasadena, spray at growth stage 30
From the text: as §1, §2

[5] = Soybean var. S40-F8, treatment 1: Moddus 200 g AI/ha
[6] = Soybean var. S40-F8, treatment 2: Moddus 100 g AI/ha
[7] = Soybean var. S40-F8, treatment 3: Moddus 50 g AI/ha
[8] = Soybean var. Toliman, treatment 1: Moddus 200 g AI/ha
[9] = Soybean var. Toliman, treatment 2: Moddus 100 g AI/ha
[10] = Soybean var. Toliman, treatment 3: Moddus 50 g AI/ha
[11] = treatment 1: Moddus 100 g AI/ha
[12] = treatment 2: Moddus 200 g AI/ha

CCOC(=O)C1CC(=O)C(=C(O)C2CC2)C(=O)C1 (centres unmarked) [TXP, trinexapac-ethyl]
Nitrogen Balance Index 8 days after spray application [1, 5]: 125.5 | Nitrogen Balance Index 8 days after spray application [1, 6]: 97.9 | Nitrogen Balance Index 8 days after spray application [1, 7]: 77.1 | Nitrogen Balance Index 8 days after spray application [1, 8]: 64.2 | Nitrogen Balance Index 8 days after spray application [1, 9]: 48.7 | Nitrogen Balance Index 8 days after spray application [1, 10]: 47.9 | Effect on NBI, in words ([1]; both soybean varieties, summary of Table 7, compared to untreated control or single components): increases NBI at high rate | Shoot length 11 days after spray application [2, 5]: 34.5 cm | Shoot length 11 days after spray application [2, 6]: 39.5 cm | Shoot length 11 days after spray application [2, 7]: 45.8 cm | Shoot length 11 days after spray application [2, 8]: 54.8 cm | Shoot length 11 days after spray application [2, 9]: 59.3 cm | Shoot length 11 days after spray application [2, 10]: 61.3 cm | Effect on plant length, in words ([2]; both soybean varieties, summary of Table 5, all rates, compared to untreated control or TXP alone): reduces plant length compared to the control | % lodging 30 days after spray application [3, 11]: 6.7% | % lodging 30 days after spray application [3, 12]: 0.0% | Effect on lodging, in words ([3]; winter rye, summary of Table 3, all rates, compared to untreated control or TXP alone): reduces lodging compared to the control | % lodging 30 days after spray application [4, 11]: 10.0% | % lodging 30 days after spray application [4, 12]: 6.7% | Effect on lodging, in words ([4]; summer barley, summary of Table 3, all rates, compared to untreated control or TXP alone): reduces lodging compared to the control
